Test results reported in ChEMBL document CHEMBL1201862, “PubChem BioAssay data set” (2004).
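Growth conditions: 96-well plates. Treatment: test compound, 48 hours, 5 concentrations. Analysis: linear interpolation between bracketing concentrations; unreached endpoints set to highest concentration. Abbreviation: GI50, concentration required for 50% inhibition of growth.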 Active and inactive are the calls of the source. Cut-off read from the data, not from the text of the source: active = GI50 up to about 1.1 µM and inactive = higher.

Key:
Assay in all cases: growth of human tumour cells (NCI), 48 h
786-0 = system: 786-0
A498 = system: A498
A549 = system: A549
ACHN = system: ACHN
BT-549 = system: BT-549
CAKI-1 = system: CAKI-1
CCRF-CEM = system: CCRF-CEM
COLO 205 = system: COLO 205
DU-145 = system: DU-145
EKVX = system: EKVX
HCC 2998 = system: HCC 2998
HCT-116 = system: HCT-116
HCT-15 = system: HCT-15
HL-60 = system: HL-60
HOP-62 = system: HOP-62
HOP-92 = system: HOP-92
HT-29 = system: HT-29
Hs-578T = system: Hs-578T
IGROV-1 = system: IGROV-1
K562 = system: K562
KM12 = system: KM12
LOX IMVI = system: LOX IMVI
M14 = system: M14
MCF7 = system: MCF7
MDA-MB-231 = system: MDA-MB-231
MDA-MB-435 = system: MDA-MB-435
MDA-N = system: MDA-N
MOLT-4 = system: MOLT-4
Malme-3M = system: Malme-3M
NCI-H226 = system: NCI-H226
NCI-H23 = system: NCI-H23
NCI-H460 = system: NCI-H460
NCI-H522 = system: NCI-H522
NCI/ADR-RES = system: NCI/ADR-RES
OVCAR-3 = system: OVCAR-3
OVCAR-4 = system: OVCAR-4
OVCAR-5 = system: OVCAR-5
OVCAR-8 = system: OVCAR-8
PC-3 = system: PC-3
RPMI-8226 = system: RPMI-8226
RXF 393 = system: RXF 393
SF-268 = system: SF-268
SF-295 = system: SF-295
SF-539 = system: SF-539
SK-MEL-28 = system: SK-MEL-28
SK-MEL-2 = system: SK-MEL-2
SK-MEL-5 = system: SK-MEL-5
SK-OV-3 = system: SK-OV-3
SN12C = system: SN12C
SNB-19 = system: SNB-19
SNB-75 = system: SNB-75
SW-620 = system: SW-620
T47D = system: T47D
TK-10 = system: TK-10
U-251 = system: U-251
UACC-257 = system: UACC-257
UACC-62 = system: UACC-62
UO-31 = system: UO-31

Compound: Cc1c(C)c(C)c(CSC(=N)N)c(C)c1C
- GI50 (786-0): 15.9 µM (inactive)
- GI50 (A498): 16.2 µM (inactive)
- GI50 (A549): 17.2 µM (inactive)
- GI50 (ACHN): 16.6 µM (inactive)
- GI50 (BT-549): 16.4 µM (inactive)
- GI50 (CAKI-1): 11.5 µM (inactive)
- GI50 (CCRF-CEM): 15.5 µM (inactive)
- GI50 (COLO 205): 14.9 µM (inactive)
- GI50 (DU-145): 16.9 µM (inactive)
- GI50 (EKVX): 14.8 µM (inactive)
- GI50 (HCC 2998): 14.7 µM (inactive)
- GI50 (HCT-116): 12.7 µM (inactive)
- GI50 (HCT-15): 16.2 µM
- GI50 (HL-60): 8.57 µM (inactive)
- GI50 (HOP-62): 15.5 µM (inactive)
- GI50 (HOP-92): 14 µM (inactive)
- GI50 (HT-29): 12.5 µM (inactive)
- GI50 (Hs-578T): 15.6 µM (inactive)
- GI50 (IGROV-1): 33.6 µM (inactive)
- GI50 (K562): 12.2 µM (inactive)
- GI50 (KM12): 18.4 µM (inactive)
- GI50 (LOX IMVI): 26.2 µM (inactive)
- GI50 (M14): 10.8 µM (inactive)
- GI50 (MCF7): 17.1 µM (inactive)
- GI50 (MDA-MB-231): 14.1 µM (inactive)
- GI50 (MDA-MB-435): 14.2 µM (inactive)
- GI50 (MDA-N): 16.9 µM (inactive)
- GI50 (MOLT-4): 15.5 µM (inactive)
- GI50 (Malme-3M): 15.9 µM (inactive)
- GI50 (NCI-H226): 13.6 µM (inactive)
- GI50 (NCI-H23): 16.5 µM (inactive)
- GI50 (NCI-H460): 13.2 µM (inactive)
- GI50 (NCI-H522): 16.3 µM (inactive)
- GI50 (NCI/ADR-RES): 15.2 µM (inactive)
- GI50 (OVCAR-3): 16.5 µM (inactive)
- GI50 (OVCAR-4): 15.6 µM (inactive)
- GI50 (OVCAR-5): 14.5 µM (inactive)
- GI50 (OVCAR-8): 24.1 µM (inactive)
- GI50 (PC-3): 12.2 µM (inactive)
- GI50 (RPMI-8226): 12.6 µM (inactive)
- GI50 (RXF 393): 17.5 µM (inactive)
- GI50 (SF-268): 18.3 µM (inactive)
- GI50 (SF-295): 7.52 µM (inactive)
- GI50 (SF-539): 15.7 µM (inactive)
- GI50 (SK-MEL-28): 15.4 µM (inactive)
- GI50 (SK-MEL-2): 14.6 µM (inactive)
- GI50 (SK-MEL-5): 13.7 µM (inactive)
- GI50 (SK-OV-3): 16 µM (inactive)
- GI50 (SN12C): 16.3 µM (inactive)
- GI50 (SNB-19): 14.6 µM (inactive)
- GI50 (SNB-75): 15.6 µM (inactive)
- GI50 (SW-620): 15.6 µM (inactive)
- GI50 (T47D): 14.6 µM (inactive)
- GI50 (TK-10): 14.8 µM (inactive)
- GI50 (U-251): 13.6 µM (inactive)
- GI50 (UACC-257): 14.2 µM (inactive)
- GI50 (UACC-62): 11.9 µM (inactive)
- GI50 (UO-31): 6.52 µM (inactive)

Compound: O=[N+]([O-])/C(C(Cl)=C(Cl)Cl)=C(\Nc1cccc2ccccc12)n1nnc2ccccc21
- GI50 (786-0): > 100 µM (inactive)
- GI50 (A498): 33.5 µM (inactive)
- GI50 (A549): 77.3 µM (inactive)
- GI50 (ACHN): > 100 µM (inactive)
- GI50 (BT-549): 21.7 µM (inactive)
- GI50 (CAKI-1): > 100 µM (inactive)
- GI50 (CCRF-CEM): 28.9 µM (inactive)
- GI50 (COLO 205): 21.5 µM (inactive)
- GI50 (DU-145): > 100 µM (inactive)
- GI50 (EKVX): > 100 µM (inactive)
- GI50 (HCC 2998): > 100 µM (inactive)
- GI50 (HCT-116): 34.1 µM (inactive)
- GI50 (HCT-15): 58.2 µM
- GI50 (HOP-62): 32.4 µM (inactive)
- GI50 (HT-29): 63.5 µM (inactive)
- GI50 (Hs-578T): 9.31 µM (inactive)
- GI50 (KM12): 30.7 µM (inactive)
- GI50 (LOX IMVI): 35.4 µM (inactive)
- GI50 (M14): > 100 µM (inactive)
- GI50 (MCF7): 41.5 µM (inactive)
- GI50 (MDA-MB-231): 47.1 µM (inactive)
- GI50 (MDA-MB-435): 53.7 µM (inactive)
- GI50 (MDA-N): > 100 µM (inactive)
- GI50 (Malme-3M): 68.5 µM (inactive)
- GI50 (NCI-H226): 71.3 µM (inactive)
- GI50 (NCI-H23): 37.6 µM (inactive)
- GI50 (NCI-H460): 63.4 µM (inactive)
- GI50 (NCI/ADR-RES): 78.3 µM (inactive)
- GI50 (OVCAR-3): 46.8 µM (inactive)
- GI50 (OVCAR-4): 33.3 µM (inactive)
- GI50 (OVCAR-5): 42 µM (inactive)
- GI50 (OVCAR-8): 73.6 µM (inactive)
- GI50 (PC-3): 47.1 µM (inactive)
- GI50 (RPMI-8226): 23.3 µM (inactive)
- GI50 (RXF 393): 19.1 µM (inactive)
- GI50 (SF-268): 48 µM (inactive)
- GI50 (SF-295): 32.1 µM (inactive)
- GI50 (SF-539): > 100 µM (inactive)
- GI50 (SK-MEL-28): > 100 µM (inactive)
- GI50 (SK-MEL-2): 38.4 µM (inactive)
- GI50 (SK-OV-3): 68.7 µM (inactive)
- GI50 (SN12C): > 100 µM (inactive)
- GI50 (SNB-19): 32.9 µM (inactive)
- GI50 (SNB-75): 86.5 µM (inactive)
- GI50 (SW-620): 58.5 µM (inactive)
- GI50 (T47D): > 100 µM (inactive)
- GI50 (U-251): 33 µM (inactive)
- GI50 (UACC-257): > 100 µM (inactive)
- GI50 (UACC-62): 40.9 µM (inactive)
- GI50 (UO-31): 98.4 µM (inactive)

Compound: Cn1c(=O)c2c(nc3sc4ncccc4c(=O)n32)n(C)c1=O
- GI50 (786-0): > 100 µM (inactive)
- GI50 (A498): > 100 µM (inactive)
- GI50 (ACHN): > 100 µM (inactive)
- GI50 (BT-549): > 100 µM (inactive)
- GI50 (CAKI-1): > 100 µM (inactive)
- GI50 (CCRF-CEM): > 100 µM (inactive)
- GI50 (COLO 205): > 100 µM (inactive)
- GI50 (DU-145): > 100 µM (inactive)
- GI50 (EKVX): > 100 µM (inactive)
- GI50 (HCC 2998): > 100 µM (inactive)
- GI50 (HCT-116): > 100 µM (inactive)
- GI50 (HCT-15): > 100 µM
- GI50 (HL-60): > 100 µM (inactive)
- GI50 (HOP-62): > 100 µM (inactive)
- GI50 (HOP-92): > 100 µM (inactive)
- GI50 (HT-29): > 100 µM (inactive)
- GI50 (Hs-578T): > 100 µM (inactive)
- GI50 (IGROV-1): > 100 µM (inactive)
- GI50 (KM12): > 100 µM (inactive)
- GI50 (LOX IMVI): > 100 µM (inactive)
- GI50 (M14): > 100 µM (inactive)
- GI50 (MCF7): > 100 µM (inactive)
- GI50 (MDA-MB-231): > 100 µM (inactive)
- GI50 (MDA-MB-435): > 100 µM (inactive)
- GI50 (MDA-N): > 100 µM (inactive)
- GI50 (MOLT-4): > 100 µM (inactive)
- GI50 (NCI-H226): > 100 µM (inactive)
- GI50 (NCI-H23): > 100 µM (inactive)
- GI50 (NCI-H460): > 100 µM (inactive)
- GI50 (NCI/ADR-RES): > 100 µM (inactive)
- GI50 (OVCAR-3): > 100 µM (inactive)
- GI50 (OVCAR-4): > 100 µM (inactive)
- GI50 (OVCAR-5): > 100 µM (inactive)
- GI50 (OVCAR-8): > 100 µM (inactive)
- GI50 (PC-3): > 100 µM (inactive)
- GI50 (RPMI-8226): > 100 µM (inactive)
- GI50 (RXF 393): > 100 µM (inactive)
- GI50 (SF-268): > 100 µM (inactive)
- GI50 (SF-295): > 100 µM (inactive)
- GI50 (SF-539): > 100 µM (inactive)
- GI50 (SK-MEL-28): > 100 µM (inactive)
- GI50 (SK-MEL-2): > 100 µM (inactive)
- GI50 (SK-MEL-5): > 100 µM (inactive)
- GI50 (SK-OV-3): > 100 µM (inactive)
- GI50 (SN12C): > 100 µM (inactive)
- GI50 (SNB-19): > 100 µM (inactive)
- GI50 (SNB-75): > 100 µM (inactive)
- GI50 (SW-620): > 100 µM (inactive)
- GI50 (T47D): > 100 µM (inactive)
- GI50 (TK-10): > 100 µM (inactive)
- GI50 (U-251): > 100 µM (inactive)
- GI50 (UACC-257): > 100 µM (inactive)
- GI50 (UACC-62): > 100 µM (inactive)
- GI50 (UO-31): 81.1 µM (inactive)
